Test results: the NIST ThermoML archive (doi:10.1021/je800557h)
Numbers after ± are expanded uncertainties.

Conditions: Liquid, Ebulliometric method (Recirculating still)

| vapor or sublimation pressure (298.15 K) [kPa] | vapor or sublimation pressure (323.15 K) [kPa] | SMILES |
| --- | --- | --- |
| 3.166 ± 0.054 | 12.35 ± 0.087 | O [water] |
| – | 33.86 ± 0.38 | CC#N [acetonitrile] |
